Assay results from ChEMBL document CHEMBL5505970 (J Med Chem, 2024).

What was measured:
[1] = Toxicity in BALB/c mouse assessed as increase in proportion of red blood cells in bone marrow at 10 mg/kg, po qd for 3 days; format: organism-based; conditions: in vivo, 72 h, time 3 day
[2] = Clearance in mouse hepatocytes at 1 uM measured per million cells by ESI/LC-MS/MS analysis; format: ADME, cell-based, Hepatocyte; conditions: read-out: CLH
[3] = Toxicity in BALB/c mouse assessed as morphological changes in myeloid lineage cells in bone marrow at 10 mg/kg, po qd for 3 days; format: organism-based; conditions: in vivo, 72 h, time 3 day
[4] = Toxicity in NOD-SCID mouse xenografted with human Granta-519 cells assessed as changes in body weight at 10 mg/kg, po qd for 7 days; format: organism-based; conditions: in vivo, 168 h, time 7 day
[5] = Toxicity in NOD-SCID mouse xenografted with human Granta-519 cells assessed as reticulocytes count at 5 mg/kg, po qd for 3 days and 4 days off intermittent dosing for 3 cycles co-administered with PARP inhibitor, niraparib and measured on day 21; format: organism-based; conditions: in vivo, 504 h, time 21 day
[6] = Toxicity in NOD-SCID mouse xenografted with human Granta-519 cells assessed as late stage erythroblasts at 30 mg/kg, po qd for 3 days and measured at 2 days after treatment discontinuation by flow cytometry; format: organism-based; conditions: in vivo, 72 h, time 3 day

hepatocyte CLint at 1 µM [2]: 11 µL/min/1e6 cells
Structure (SMILES): C[C@@H]1COCCN1c1cc([C@]2(O)C[C@H]3CC[C@@H](C2)O3)c2cnn(-c3cc[nH]n3)c2n1 [CAMONSERTIB]
Activity [1]: Toxic | Activity [3]: Non-Toxic | Activity [4]: Non-Toxic | Activity [5]: Non-Toxic | Activity [6]: Non-Toxic
